Data published in patent US12649942B2, “Carotenoids for treating or preventing nausea” (priority 2019, dated 2026).

Columns and labels:
pgp-5p::gfp [1] = assay: pgp-5p::gfp induction in eft-3(q145);pgp-5p::gfp animals (translation deficit); format: in vivo, C. elegans; conditions: vs mock-treated
pgp-5p::gfp [2] = assay: pgp-5p::gfp induction in response to hygromycin, emetine or cisplatin; format: in vivo, C. elegans; conditions: animals fed E. coli OP50; hygromycin 10 μg/ml, emetine 6.25 μg/ml, cisplatin 1 mM
Experimental: Hygromycin diluted in M9 solution to the desired concentration was added onto E. coli OP50 bacteria containing NGM plates. […] For the xenobiotic experiments, synchronized L1-stage animals were dropped onto the drug containing plates and scored 4 days later.

C. elegans = assay: food aversion behavior; format: in vivo; conditions: for food aversion induced by the drug: in vivo
Experimental: In some embodiments, a food aversion assay as described herein is used. In some embodiments, a test sample is, or is derived from (e.g., a sample taken from) an in vivo model of a disorder as described herein. For example, a test compound is applied to a test sample comprising one or more C. elegans organisms, and one or more effects of the test compound is evaluated. For example, the ability of a test compound to counteract food aversion in the presence of a chemotherapeutic agent or other nausea-inducing stimulus can be tested. Alternatively, effects on a reporter gene, e.g., ABC transporter gene fusion pgp-5p::gfp, can be evaluated by detecting alterations in GFP fluorescence. As one of skill in the art will appreciate, other reporters could readily be used.
C. elegans food aversion behaviors are induced when animals are exposed to xenobiotics or essential gene inactivations (Melo and Ruvkun, 2012). […] While ˜40% of animals exposed to 25 μg/ml hygromycin display food aversion behavior, ˜15% of animals exposed to 25 μg/ml hygromycin and K. rhizophila carotenoid extract show aversion (FIG. 3E). Similar results were obtained with cisplatin: ˜50% of animals exposed to 1 mM cisplatin display aversion behavior while <20% of animals exposed to 1 mM cisplatin and K. rhizophila carotenoid extract display food aversion (FIG. 3F).

[3] = animals on E. coli OP50 treated with the substance, screened after 50 hours at 20° C.
[4] = animals fed on E. coli expressing the carotenoid

Question: How did the “induction of pgp-5p::gfp” value (pgp-5p::gfp [1]; [3]) turn out when CC(=O)N[C@@H](CS)C(=O)O [N-acetyl cysteine] was run?
Answer: not significantly different

Question: For CC1=CCCC(C)(C)C1/C=C/C(C)=C/C=C/C(C)=C/C=C/C=C(C)/C=C/C=C(C)/C=C/C1=C(C)CCCC1(C)C (stereo not drawn) [alpha-carotene], which “induction of pgp-5p::gfp” value (pgp-5p::gfp [1]; [4]) is on record?
Answer: not significantly different

Question: For CC1=C(/C=C/C(C)=C/C=C/C(C)=C/C=C/C=C(C)/C=C/C=C(C)/C=C/C2=C(C)C(=O)[C@@H](O)CC2(C)C)C(C)(C)C[C@H](O)C1=O [astaxanthin], which “induction of pgp-5p::gfp” value (pgp-5p::gfp [1]; [3]) is on record?
Answer: not significantly different

Question: For CC1=C(/C=C/C(C)=C/C=C/C(C)=C/C=C/C=C(C)/C=C/C=C(C)/C=C/C2=C(C)CCCC2(C)C)C(C)(C)CCC1 [beta-carotene], which “induction of pgp-5p::gfp” value (pgp-5p::gfp [1]; [3]) is on record?
Answer: not significantly different

Question: How did the “pgp-5p::gfp expression induced by the drug” value (pgp-5p::gfp [2]) turn out when N.N.[Cl][Pt][Cl] [cisplatin] was run?
Answer: induces pgp-5p::gfp expression

Question: And the “animals that display aversion behavior” value (C. elegans; 1 mM cisplatin, no extract)?
Answer: ~50%

Question: What about the “food aversion induced by the drug” value (C. elegans) of the same compound?
Answer: strong food aversion

Question: CC(C)=CCC/C(C)=C/C=C/C(C)=C/C=C/C(C)=C/C=C/C=C(C)/C=C/C=C(C)/C=C/C1C(C)=CCCC1(C)C (stereo not shown) [delta-carotene] was tested. Which “induction of pgp-5p::gfp” value (pgp-5p::gfp [1]; [4]) did it give?
Answer: not significantly different

Question: How did the “food aversion induced by the drug” value (C. elegans) turn out when CC[C@H]1CN2CCc3cc(OC)c(OC)cc3[C@@H]2C[C@@H]1C[C@H]1NCCc2cc(OC)c(OC)cc21 [emetine] was run?
Answer: strong food aversion

Question: With CC(C)=CCC/C(C)=C/C=C/C(C)=C/C=C/C(C)=C/C=C/C=C(C)/C=C/C=C(\C)CC/C=C(\C)CCC=C(C)C [neurosporene] as the compound, how does the “induction of pgp-5p::gfp” value (pgp-5p::gfp [1]; [4]) read?
Answer: not significantly different

Question: Cc1c(C)c2c(c(C)c1O)CCC(C)(C(=O)O)O2 (stereo not shown) [trolox] was tested. Which “induction of pgp-5p::gfp” value (pgp-5p::gfp [1]; [3]) did it give?
Answer: not significantly different

Question: How did the “induction of pgp-5p::gfp” value (pgp-5p::gfp [1]; [4]) turn out when CC(/C=C/C=C(C)/C=C/[C@@]12O[C@]1(C)C[C@@H](O)CC2(C)C)=C\C=C\C=C(C)\C=C\C=C(C)\C=C\[C@@]12O[C@]1(C)C[C@@H](O)CC2(C)C [violaxanthin] was run?
Answer: not significantly different

Question: Which “induction of pgp-5p::gfp” value (pgp-5p::gfp [1]; [4]) does the source give for CC1=C(/C=C/C(C)=C/C=C/C(C)=C/C=C/C=C(C)/C=C/C=C(C)/C=C/C2=C(C)C[C@@H](O)CC2(C)C)C(C)(C)C[C@H](O)C1 [zeaxanthin] here?
Answer: not significantly different
